Laboratory results reported in patent US10479789B2, “Pyrido[1,2-A]pyrimidone analog, crystal form thereof, intermediate thereof and preparation method therefor” (Chia Tai Tianqing Pharmaceutical Group Co., Ltd., priority 2015, dated 2019).

What was measured:
[1] = biological target: T1, mTOR (Homo sapiens, UniProt P42345); assay: mTOR kinase activity, 32P-ATP P81 filter-binding method; format: biochemical; conditions: 3 μM 4EBP1 and 10 μM ATP; read-out: IC50 of mTOR enzyme activity
T1 construct: N-terminal GST tag (amino acid 1360-2549, molecular weight=163.9 kDa); GST (N); host or cells: insect cells
Procedure: The activity of the test compounds of the present invention on mTOR kinase was tested by the test method below.
Reaction Buffer: 20 mM Hepes (pH 7.5), 10 mM MgCl2, 2 mM MnCl2, 1 mM EGTA, 0.02% Brij35, 0.02 mg/mL BSA, 0.1 mM Na3VO4, 2 mM DTT, 2% DMSO.
Enzyme for reaction: humanized recombinant mTOR fragment with a N-terminal GST tag (amino acid 1360-2549, molecular weight=163.9 kDa), expressed in insect cells.
Reaction Substrate: humanized recombinant full-length 4EBP1 with a N-terminal His tag (molecular weight=13.6 kDa), expressed in bacteria;
Reaction conditions: 3 μM 4EBP1 and 10 μM ATP.
1. The reaction substrate and other reaction factors were added to the freshly prepared reaction buffer.
2. The kinase was added to the substrate reaction and gently mixed.
3. The compound dissolved in 100% DMSO was transferred into the kinase reaction solution using Acoustic technology (Echo 550; nanoliter rang) and then incubated at room temperature for 20 min.
4. An appropriate concentration of ^32P-ATP was add to the reaction system.
5. It was incubated at room temperature for 2 hours.
6. Kinase activity was detected by the P81 filter-binding method.

[2] = biological target: PI3Kβ (Homo sapiens, UniProt P42338); assay: ADP-Glo Assay II, PI3Kβ; format: biochemical; conditions: read-out: IC50 for inhibition of PI3Kβ activity
Procedure: 1) The compound was diluted using Echo from Labcyte company, 50 nL of the compound was transferred into an assay plate, and centrifuged at a speed of 1000 rpm for 10 sec.
2) A kinase/lipid substrate mixed solution and a kinase reaction buffer/lipid substrate mixed solution were prepared; the kinase/lipid substrate mixed solution was added into columns 3-24 of the assay plate, 3 μL per well; the kinase reaction buffer/lipid substrate mixed solution was added into columns 1-2 of the assay plat, 3 μL per well; and the plate was centrifuged at a speed of 1000 rpm for 10 sec.
3) An ATP solution was prepared, and added into the assay plate, 2 μL per well; the plate was centrifuged at a speed of 1000 rpm for 10 sec, shaken and mixed in 2nd gear mode on a plate shaker for 1 min, further centrifuged at a speed of 1000 rpm for 10 sec, and incubated for 120 min at 23° C. […]
5) A kinase detection reagent was prepared, added into the assay plate, 10 μL per well; the plate was centrifuged at a speed of 1000 rpm for 10 sec, shaken and mixed in 2nd gear mode on a plate shaker for 1 min, further centrifuged at a speed of 1000 rpm for 10 sec, incubated for 30 min at 23° C.; and then read on the multi-marker detector Envision.
IC50 results were analyzed by XLfit5 (Formula 205) of IDBS company.

[3] = test system: human colon cancer CO-04-0032; assay: In vivo pharmacodynamics, subcutaneous xenograft tumor model of human colon cancer CO-04-0032; design: species or system BALB/c nude mice
Procedure: The studies were conducted to examine if the test drugs have in vivo efficacy in the human colon cancer CO-04-0032 animal model and the gastric cancer ST-02-0013 animal model. The descriptions about the animal feeding, feed ingredients, experimental observation, experimental indexes, experimental termination, as well as data analysis in the tests were as follows:
Animal Grouping: The animals were weighed and the tumor volume was measured prior to administration. The animals were randomly grouped according to tumor volume (randomized block design).
Experimental Indexes: The experimental indexes were used to examine whether tumor growth is inhibited, delayed or cured. Tumor diameter was measured twice a week with a vernier caliper. The tumor volume was calculated by the formula: V=0.5a×b^2, wherein a and b represent the long diameter and short diameter of a tumor, respectively. Tumor growth inhibition (TGI) of a compound was evaluated with T-C (day) and T/C (%). […]
Data Analysis: One-way ANOVA was used for comparison of three or more groups. […] All data was analyzed using SPSS 17.0. p<0.05 indicated a significant difference. […]

T1 sequence (P42345 1360-2549): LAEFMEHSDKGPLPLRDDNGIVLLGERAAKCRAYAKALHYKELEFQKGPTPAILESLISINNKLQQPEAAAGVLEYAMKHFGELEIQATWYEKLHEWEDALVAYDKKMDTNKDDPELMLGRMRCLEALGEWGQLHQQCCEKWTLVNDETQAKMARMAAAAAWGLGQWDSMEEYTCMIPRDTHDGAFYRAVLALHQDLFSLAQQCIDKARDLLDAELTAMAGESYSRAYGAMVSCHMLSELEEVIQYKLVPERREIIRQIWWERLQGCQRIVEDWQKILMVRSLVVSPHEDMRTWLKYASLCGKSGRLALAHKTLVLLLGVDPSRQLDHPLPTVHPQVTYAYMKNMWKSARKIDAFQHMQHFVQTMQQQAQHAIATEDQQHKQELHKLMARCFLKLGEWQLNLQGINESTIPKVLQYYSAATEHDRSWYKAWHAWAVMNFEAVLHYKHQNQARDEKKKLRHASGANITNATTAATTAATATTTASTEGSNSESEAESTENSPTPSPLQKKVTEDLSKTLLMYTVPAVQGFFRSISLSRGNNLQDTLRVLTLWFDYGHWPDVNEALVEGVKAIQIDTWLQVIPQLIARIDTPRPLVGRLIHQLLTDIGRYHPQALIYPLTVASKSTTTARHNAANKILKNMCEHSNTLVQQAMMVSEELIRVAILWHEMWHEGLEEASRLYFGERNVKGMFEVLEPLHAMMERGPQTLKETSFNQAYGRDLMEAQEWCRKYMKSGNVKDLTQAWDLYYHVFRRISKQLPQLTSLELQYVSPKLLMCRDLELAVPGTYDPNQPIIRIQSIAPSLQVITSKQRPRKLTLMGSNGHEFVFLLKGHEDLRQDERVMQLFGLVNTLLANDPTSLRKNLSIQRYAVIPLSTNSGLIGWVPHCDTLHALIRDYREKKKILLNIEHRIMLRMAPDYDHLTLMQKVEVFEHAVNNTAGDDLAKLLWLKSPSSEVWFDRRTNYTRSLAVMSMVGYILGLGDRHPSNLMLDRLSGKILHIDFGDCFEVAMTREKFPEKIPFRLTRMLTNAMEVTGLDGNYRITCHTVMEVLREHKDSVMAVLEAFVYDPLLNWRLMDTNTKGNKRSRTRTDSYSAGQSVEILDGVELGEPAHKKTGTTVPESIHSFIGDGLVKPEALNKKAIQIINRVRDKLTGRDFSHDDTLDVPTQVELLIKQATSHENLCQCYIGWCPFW
Sequence of PI3Kβ (P42338 whole entry): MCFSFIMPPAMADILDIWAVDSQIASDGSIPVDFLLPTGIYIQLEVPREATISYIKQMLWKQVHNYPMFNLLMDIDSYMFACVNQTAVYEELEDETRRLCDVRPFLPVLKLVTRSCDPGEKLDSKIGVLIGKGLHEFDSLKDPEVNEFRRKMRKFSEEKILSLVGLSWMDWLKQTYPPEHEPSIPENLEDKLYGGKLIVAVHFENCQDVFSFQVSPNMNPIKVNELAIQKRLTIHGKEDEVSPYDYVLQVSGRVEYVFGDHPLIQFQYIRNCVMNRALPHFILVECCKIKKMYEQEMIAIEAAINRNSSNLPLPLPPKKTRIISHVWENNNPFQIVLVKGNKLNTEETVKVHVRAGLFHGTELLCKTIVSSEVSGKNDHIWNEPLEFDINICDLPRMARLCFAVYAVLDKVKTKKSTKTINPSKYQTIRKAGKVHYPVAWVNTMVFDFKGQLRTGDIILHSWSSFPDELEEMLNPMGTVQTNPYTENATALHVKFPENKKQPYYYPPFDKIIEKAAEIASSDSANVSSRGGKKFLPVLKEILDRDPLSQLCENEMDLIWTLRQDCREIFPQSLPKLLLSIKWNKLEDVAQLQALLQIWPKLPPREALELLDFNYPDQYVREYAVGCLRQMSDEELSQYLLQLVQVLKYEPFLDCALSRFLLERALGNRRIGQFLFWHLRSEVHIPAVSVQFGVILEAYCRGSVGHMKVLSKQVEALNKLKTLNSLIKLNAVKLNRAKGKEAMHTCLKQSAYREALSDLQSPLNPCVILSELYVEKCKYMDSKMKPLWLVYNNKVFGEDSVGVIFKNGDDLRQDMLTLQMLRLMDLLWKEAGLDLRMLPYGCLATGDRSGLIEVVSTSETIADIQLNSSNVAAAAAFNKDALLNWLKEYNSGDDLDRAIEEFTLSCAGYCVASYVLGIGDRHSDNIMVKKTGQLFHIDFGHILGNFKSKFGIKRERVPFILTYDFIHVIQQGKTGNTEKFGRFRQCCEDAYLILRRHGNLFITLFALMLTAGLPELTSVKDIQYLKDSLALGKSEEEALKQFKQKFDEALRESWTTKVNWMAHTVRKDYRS
Sequence of PI3Kβ (P27986 whole entry partner): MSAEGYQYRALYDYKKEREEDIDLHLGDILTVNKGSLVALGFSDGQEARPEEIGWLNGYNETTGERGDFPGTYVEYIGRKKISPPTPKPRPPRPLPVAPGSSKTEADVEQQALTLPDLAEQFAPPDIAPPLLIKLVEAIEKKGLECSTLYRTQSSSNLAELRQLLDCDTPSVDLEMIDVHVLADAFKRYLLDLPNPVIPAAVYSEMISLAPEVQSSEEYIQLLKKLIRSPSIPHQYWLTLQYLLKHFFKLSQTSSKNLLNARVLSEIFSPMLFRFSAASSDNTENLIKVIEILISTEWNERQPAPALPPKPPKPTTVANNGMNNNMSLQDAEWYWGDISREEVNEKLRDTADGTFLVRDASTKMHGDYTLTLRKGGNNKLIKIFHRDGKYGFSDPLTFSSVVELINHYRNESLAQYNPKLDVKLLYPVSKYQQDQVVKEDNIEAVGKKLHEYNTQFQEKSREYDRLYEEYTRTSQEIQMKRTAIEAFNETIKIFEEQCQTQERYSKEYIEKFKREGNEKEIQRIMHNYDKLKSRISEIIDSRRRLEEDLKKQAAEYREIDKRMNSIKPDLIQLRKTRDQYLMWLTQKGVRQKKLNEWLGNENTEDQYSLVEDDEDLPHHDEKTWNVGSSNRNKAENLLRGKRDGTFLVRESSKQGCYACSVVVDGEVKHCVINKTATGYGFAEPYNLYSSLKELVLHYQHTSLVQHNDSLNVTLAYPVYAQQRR

Question: What does the source list for COc1ncc(-c2ccc3ncc(OCCN(C)C)c(=O)n3c2)cc1NS(=O)(=O)c1ccc(F)cc1Cl [Compound 1]?
Answer: IC50 [1]: > 200 nM; IC50 [2]: 9.9 ± 2.7 nM; anti-tumor activity compared to the positive control drug BKM120 ([3]; colon cancer CO-04-0032): more excellent anti-tumor activity; increase in tumor volume ([3]; from day 15 to day 30 of the administration, CO-04-0032): almost no increase in tumor volume
